In PubChem BioAssay AID1259407 (Chemical Carcinogenesis Research Information System (CCRIS), 2018) one finds mutagenic call data, which are given here for 5 molecules.

Activity calls are given as the source filed them. The rule behind the calls is not given here.

The data set relates to CCRIS mutagenicity, Ames/micronucleus/aberration tests. The data set can be described thus: CCRIS mutagenicity studies.
The mark [1] stands for this setting: Test System: AMES SALMONELLA TYPHIMURIUM, Strain/Indicator: TA100, Metabolic Activation: NONE, Method: STANDARD PLATE.
Where [2] appears, read: Test System: AMES SALMONELLA TYPHIMURIUM, Strain/Indicator: TA1535, Metabolic Activation: NONE, Method: STANDARD PLATE.

Consider `Nc1cc([N+](=O)[O-])c(CO)c([N+](=O)[O-])c1`, for which the mutagenic call is “inactive; negative” (End Point: In vitro chromosomal aberrations, Test System: V79 Chinese hamster fibroblasts, Metabolic Activation: None); “active; positive” (Test System: Ames Salmonella typhimurium, Strain/Indicator: TA98, Metabolic Activation: None, Method: Standard plate); “active; positive” (Test System: Ames Salmonella typhimurium, Strain/Indicator: TA98, Metabolic Activation: Rat, Liver, S-9, Method: Standard plate); “active; positive, ta98nr is the nitroreductase-deficient derivative of ta98” (Test System: Ames Salmonella typhimurium, Strain/Indicator: TA98NR, Metabolic Activation: None, Method: Standard plate); “active; positive” (Test System: Ames Salmonella typhimurium, Strain/Indicator: TA100, Metabolic Activation: None, Method: Standard plate); “active; positive” (Test System: Ames Salmonella typhimurium, Strain/Indicator: TA100, Metabolic Activation: Rat, Liver, S-9, Method: Standard plate).
For the molecule `CC(=O)N(O)c1ccc(Oc2ccccc2)cc1`, the mutagenic call by setting is: (Test System: AMES SALMONELLA TYPHIMURIUM, Strain/Indicator: TA100, Metabolic Activation: GUINEA PIG, LIVER, S-9, KANECLOR 500, Method: STANDARD PLATE) “active; positive”; under setting [1], “inactive; negative”; (Test System: AMES SALMONELLA TYPHIMURIUM, Strain/Indicator: TA100, Metabolic Activation: RAT, LIVER, S-9, KANECLOR 500, Method: STANDARD PLATE) “active; positive”.
As to `COc1cc([C@@H]2c3cc4c(cc3[C@H](O)[C@H]3COC(=O)[C@H]23)OCO4)cc(OC)c1OC`, the mutagenic call runs as follows: (Test System: AMES SALMONELLA TYPHIMURIUM, Strain/Indicator: TA98, Metabolic Activation: HAMSTER, LIVER, S-9, AROCLOR 1254, Method: STANDARD PLATE) “inactive; negative”; (Test System: AMES SALMONELLA TYPHIMURIUM, Strain/Indicator: TA98, Metabolic Activation: NONE, Method: STANDARD PLATE) “inactive; negative”; (Test System: AMES SALMONELLA TYPHIMURIUM, Strain/Indicator: TA98, Metabolic Activation: RAT, LIVER, S-9, AROCLOR 1254, Method: STANDARD PLATE) “inactive; negative”; (Test System: AMES SALMONELLA TYPHIMURIUM, Strain/Indicator: TA100, Metabolic Activation: HAMSTER, LIVER, S-9, AROCLOR 1254, Method: STANDARD PLATE) “inactive; negative”; under setting [1], “inactive; negative”; (Test System: AMES SALMONELLA TYPHIMURIUM, Strain/Indicator: TA100, Metabolic Activation: RAT, LIVER, S-9, AROCLOR 1254, Method: STANDARD PLATE) “inactive; negative”. Also, the mutagenic call by setting is: (Test System: AMES SALMONELLA TYPHIMURIUM, Strain/Indicator: TA102, Metabolic Activation: NONE, Method: STANDARD PLATE) “inactive; negative”; (Test System: AMES SALMONELLA TYPHIMURIUM, Strain/Indicator: TA102, Metabolic Activation: RAT, LIVER, S-9, AROCLOR 1254, Method: STANDARD PLATE) “inactive; negative”; (Test System: AMES SALMONELLA TYPHIMURIUM, Strain/Indicator: TA1535, Metabolic Activation: HAMSTER, LIVER, S-9, AROCLOR 1254, Method: STANDARD PLATE) “inactive; negative”; under setting [2], “inactive; negative”; (Test System: AMES SALMONELLA TYPHIMURIUM, Strain/Indicator: TA1535, Metabolic Activation: RAT, LIVER, S-9, AROCLOR 1254, Method: STANDARD PLATE) “inactive; negative”; (Test System: AMES SALMONELLA TYPHIMURIUM, Strain/Indicator: TA1537, Metabolic Activation: HAMSTER, LIVER, S-9, AROCLOR 1254, Method: STANDARD PLATE) “inactive; negative”. The mutagenic call is “inactive; negative” (Test System: AMES SALMONELLA TYPHIMURIUM, Strain/Indicator: TA1537, Metabolic Activation: NONE, Method: STANDARD PLATE); “inactive; negative” (Test System: AMES SALMONELLA TYPHIMURIUM, Strain/Indicator: TA1537, Metabolic Activation: RAT, LIVER, S-9, AROCLOR 1254, Method: STANDARD PLATE); “inactive; negative. reevaluation of results: negative” (Test System: MOUSE LYMPHOMA, Strain/Indicator: L5178Y (TK+/TK-), Metabolic Activation: NONE, Method: SUSPENSION/PLATE); “inactive; negative. reevaluation of results: negative” (Test System: MOUSE LYMPHOMA, Strain/Indicator: L5178Y (TK+/TK-), Metabolic Activation: RAT, LIVER, S-9, AROCLOR 1254, Method: SUSPENSION/PLATE).
For the molecule `CCCCCCN(N=O)/C(N)=N/[N+](=O)[O-]`, under setting [2], the mutagenic call is “active; positive”.
Turning to `Cc1c(N)cccc1N=[N+]([O-])c1cccc(N)c1C`, the mutagenic call (Test System: AMES SALMONELLA TYPHIMURIUM, Strain/Indicator: TA98, Metabolic Activation: NONE, Method: PREINCUBATION) is “inactive; negative”; the mutagenic call (Test System: AMES SALMONELLA TYPHIMURIUM, Strain/Indicator: TA98, Metabolic Activation: RAT, LIVER, S-9, PHENOBARBITAL AND 5,6-BENZOFLAVONE, Method: PREINCUBATION) is “active; positive”; the mutagenic call (Test System: AMES SALMONELLA TYPHIMURIUM, Strain/Indicator: TA100, Metabolic Activation: NONE, Method: PREINCUBATION) was “inactive; negative”; the mutagenic call (Test System: AMES SALMONELLA TYPHIMURIUM, Strain/Indicator: TA100, Metabolic Activation: RAT, LIVER, S-9, PHENOBARBITAL AND 5,6-BENZOFLAVONE, Method: PREINCUBATION) is “inactive; negative”.
